According to patent US20260000695A1, “SOLID AND ORAL ETOPOSIDE TONIRIBATE COMPOSITIONS” (CELLACT PHARMA GMBH, priority 2022, published 2026):

Columns and labels:
[1] = Solubility and pH stability of the API; type: physicochemical
[2] = Table 9A: HPLC peaks over storage time, sample and storage not described; type: physicochemical
[3] = API; cited from earlier work

COc1cc([C@@H]2c3cc4c(cc3[C@@H](O[C@@H]3O[C@@H]5CO[C@@H](C)O[C@H]5[C@@H](O)[C@H]3O)[C@H]3COC(=O)[C@H]23)OCO4)cc(OC)c1OC(=O)OCC1COC(C)(C)O1 (stereo partly shown) [CAP 7.1, Etoposide toniribate]
solubility in water or aqueous buffer systems [1]: practically insoluble | Peak %, CAP 7.1 RT: 20.25 ([2]; 5 days): 98.83% | Peak %, RRT:0.51 RT:10.43 ([2]; 5 days): 0.09% | Peak %, RRT: 0.54 RT: 10.89 (Etoposide) ([2]; 5 days): 0.17% | Peak %, RRT: 0.95 RT: 19.13 ([2]; 5 days): 0.09% | Peak %, RRT: 0.97 RT: 19.67 ([2]; 5 days): 0.67% | Peak %, RRT: 1.10 RT: 22.32 ([2]; 5 days): 0.04% | Peak %, RRT: 1.15 RT: 23.46 ([2]; 5 days): 0.07% | Peak %, RRT: 1.19 RT: 24.11 ([2]; 5 days): 0.04% | Peak %, CAP 7.1 RT: 20.25 ([2]; 12 days): 98.58% | Peak %, RRT:0.51 RT:10.43 ([2]; 12 days): 0.09% | Peak %, RRT: 0.54 RT: 10.89 (Etoposide) ([2]; 12 days): 0.22% | Peak %, RRT: 0.95 RT: 19.13 ([2]; 12 days): 0.09% | Peak %, RRT: 0.97 RT: 19.67 ([2]; 12 days): 0.87% | Peak %, RRT: 1.10 RT: 22.32 ([2]; 12 days): 0.03% | Peak %, RRT: 1.15 RT: 23.46 ([2]; 12 days): 0.07% | Peak %, RRT: 1.19 RT: 24.11 ([2]; 12 days): 0.04% | Peak %, CAP 7.1 RT: 20.25 ([2]; 17 days): 98.18% | Peak %, RRT:0.51 RT:10.43 ([2]; 17 days): 0.17% | Peak %, RRT: 0.54 RT: 10.89 (Etoposide) ([2]; 17 days): 0.33% | Peak %, RRT: 0.95 RT: 19.13 ([2]; 17 days): 0.10% | Peak %, RRT: 0.97 RT: 19.67 ([2]; 17 days): 1.10% | Peak %, RRT: 1.10 RT: 22.32 ([2]; 17 days): 0.04% | Peak %, RRT: 1.15 RT: 23.46 ([2]; 17 days): 0.04% | Peak %, RRT: 1.19 RT: 24.11 ([2]; 17 days): 0.04% | Peak %, CAP 7.1 RT: 20.25 ([2]; initial): 99.21% | Peak %, RRT: 0.54 RT: 10.89 (Etoposide) ([2]; initial): 0.10% | Peak %, RRT: 0.95 RT: 19.13 ([2]; initial): 0.10% | Peak %, RRT: 0.97 RT: 19.67 ([2]; initial): 0.48% | Peak %, RRT: 1.10 RT: 22.32 ([2]; initial): 0.05% | Peak %, RRT: 1.15 RT: 23.46 ([2]; initial): 0.04% | Peak %, RRT: 1.19 RT: 24.11 ([2]; initial): 0.03% | solubility in water [3]: poorly soluble | stability at acidic and basic pH [3]: unstable
